# Reference: patent US7276576B1, “Mammalian ICYP (iodocyanopindolol) receptor and its applications” (Dainippon Sumitomo Pharma Co., Ltd., priority 1996, dated 2007)
# Several values for one entry are separate records, joined by “and”; a condition that tells them apart may be missing. Identical values can stand only once. Counter-ions that a name gives are not always drawn. Like-named read-outs stand apart in the source and are kept apart here.
# B1: Wheat Germ Agglutinine (WGA)-sepharose 6 MB (protein, UniProt P10968 27-197, looked up)
# chain: QRCGEQGSNMECPNNLCCSQYGYCGMGGDYCGKGCQNGACWTSKRCGSQAGGATCTNNQCCSQYGYCGFGAEYCGAGCQGGPCRADIKCGSQAGGKLCPNNLCCSQWGFCGLGSEFCGGGCQSGACSTDKPCGKDAGGRVCTNNYCCSKWGSCGIGPGYCGAGCQSGGCDG
# Tests used:
# [1] = test system: atypical β-AR in rat colon; settings: under blockade of β1- and β2-AR effects; McLaughlin, MacDonald et al.; cited from earlier work
# rat white adipocytes = test: Lipolysis in rat white adipocytes; assay type: cell-based; settings: for Slope of Schild plot for cyanopindolol, rat white adipocytes / pA2 for cyanopindolol, rat white adipocytes / IA, rat white adipocyte lipolysis / EC50: 10 μM phentolamine and 1 μM propranolol; for IA, rat white adipocyte lipolysis: relative to isoproterenol; for IA, rat white adipocyte lipolysis / EC50: mean ± SEM; for EC50: Rattus norvegicus, Adipocyte, read-out: pD2, rat white adipocyte lipolysis (converted)
# Procedure: White adipocytes were isolated from epididymal fat pads of male Wistar rats (190-230 g) and lipolysis was determined according to the previous report (Sugasawa T. et al. cited above). The cells were preincubated for 5 min at 37° C. in the presence of 30 μM ascorbic acid, 10 μM phentolamine and 1 μM propranolol.
# Agonists were then applied and incubated for 90 min. In the case of testing the effect of cyanopindolol, it was added 5 min before the addition of agonist.
# (§1) Agonist concentration-ratios (CR) were determined from the EC50 values of the concentration-response curves of agonists with or without cyanopindolol, according to the method of Arunlakshana et al., 1959.
# (§2) The EC50 values were calculated using the computer program, InPlot™.
# [2] = target: T1, [125I]-ICYP specific binding site (SMBP, SM-11044 binding protein) in rat colon smooth muscle membranes (Rattus norvegicus, UniProt A0A8I6A822); test: [125I]-ICYP saturation and competition binding to rat colon membranes (Example 2)
# T1 construct: Membranes from colon smooth muscles were prepared as essentially described by Ek et al., 1986; from tissue
# T1 sequence (A0A8I6A822 27-587): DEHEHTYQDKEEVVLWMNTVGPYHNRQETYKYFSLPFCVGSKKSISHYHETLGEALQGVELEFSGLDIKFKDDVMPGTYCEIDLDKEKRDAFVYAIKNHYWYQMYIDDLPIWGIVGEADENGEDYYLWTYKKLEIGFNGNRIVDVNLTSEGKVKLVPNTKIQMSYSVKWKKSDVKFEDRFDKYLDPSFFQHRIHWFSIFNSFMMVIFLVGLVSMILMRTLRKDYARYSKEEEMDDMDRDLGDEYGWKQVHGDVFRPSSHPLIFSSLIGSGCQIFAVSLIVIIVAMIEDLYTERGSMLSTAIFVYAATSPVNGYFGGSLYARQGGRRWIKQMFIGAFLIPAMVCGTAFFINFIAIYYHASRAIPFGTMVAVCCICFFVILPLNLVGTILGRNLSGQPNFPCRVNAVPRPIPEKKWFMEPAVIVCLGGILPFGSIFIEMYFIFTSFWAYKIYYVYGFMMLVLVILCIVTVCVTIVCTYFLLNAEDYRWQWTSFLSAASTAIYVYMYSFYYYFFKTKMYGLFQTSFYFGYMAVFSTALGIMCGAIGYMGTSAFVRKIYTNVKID
# Procedure: Incubations were carried out at 37° C. for 30 min in a shaking water-bath incubator and terminated by addition of 4 ml of ice-cold Tris-saline followed by rapid filtration under vacuum on Whatman GF/B filter presoaked in Tris-saline containing 0.1% polyethyleneimine (pH 7.4). The filters were washed three times with 4 ml of ice-cold Tris-saline, transferred to plastic tubes and counted in a γ-counter.
# Hill coefficient was calculated by linear regression using saturation experiment data. Pseudo-Hill coefficient and IC50 were determined by the computer program, InPlot™ (GraphPad Software, CA, USA).
# [3] = test system: rat colon smooth muscle segment; test: Relaxation of KCl-induced tonus in rat colon segment (organ bath); settings: for Slope of Schild plot for cyanopindolol, rat colon / pA2 for cyanopindolol, rat colon / IA, rat colon relaxation / EC50: 10 μM phentolamine and 1 μM propranolol; for IA, rat colon relaxation: relative to isoproterenol; for IA, rat colon relaxation / EC50: mean ± SEM; for EC50: Rattus norvegicus, relaxation of KCl (100 mM)-induced tonus, read-out: pD2, rat colon relaxation (converted)
# Procedure: Rat colon segment (2 cm) was suspended in organ bath containing 10 ml modified-Tyrode solution (Sugasawa T. et al. Eur. J. Pharmacol., 1992, 216, 207-215). The Tyrode solution contained 0.5 μM atropine, 0.5 μM desmethylimipramine, 30 μM hydrocortisone, 30 μM ascorbic acid, 10 μM phentolamine and 1 μM propranolol throughout study, in order to inhibit spontaneous contraction, neuronal and extra-neuronal uptake of norepinephrine, oxidation of catecholamines, possible α, β1- and β2-AR effects, respectively.
# The relaxant action of agonists was determined by measuring relaxation of KCl (100 mM)-induced tonus evoked by cumulative addition of the agonists as described previously (Sugasawa T. et al. cited above). In the case of testing the effect of cyanopindolol, it was added 5-10 min before the addition of agonist.
# as §1, §2
# [4] = test system: [125I]-ICYP specific binding site in rat skeletal muscle membranes; test: [125I]-ICYP binding to rat skeletal muscle membranes; settings: 1 nM [125I]-ICYP; 10 μM 5-HT, 10 μM phentolamine and 20 μM propranolol
# Procedure: Membranes from the colon smooth muscle and from skeletal muscle were prepared from male Wistar rats (300-360 g) as essentially mentioned in example 1.
# Saturation binding studies were performed in a final volume of 200 μl of Tris-saline containing 50 μg membrane proteins and different concentrations ([…]) of [^125I]-ICYP, supplemented with 10 μM serotonine (5-HT), 10 μM phentolamine, 20 μM propranolol and 1.1 mM ascorbic acid (pH 7.4), to block possible 5-HT receptors, ARs and oxidation of catecholamines, respectively. The [^125I]-ICYP was used after removing methyl alcohol by compressed air to avoid the influence of the solvent. […] The filters were washed three times with 4 ml of ice-cold Tris-saline, transferred to plastic tubes and counted in a γ-counter.
# Competition assays were performed against 1 nM [^125I]-ICYP. Non-specific binding was determined in the presence of 100 μM SM-11044. The inhibition constant, Ki, of a ligand was calculated using the equation described by Cheng and Prusoff (Biochem. Pharmacol., 1973, 22, 3099-3108). Hill coefficient was calculated by linear regression using saturation experiment data. Pseudo-Hill coefficient and IC50 were determined by the computer program, InPlot™ (GraphPad Software, CA, USA).
# guinea pig eosinophil = test: Leukotriene B4 induced guinea pig eosinophil chemotaxis; assay type: cell-based
# [5] = target: T2, 34 kDa photoaffinity-labeled protein (SMBP) in rat colon membranes (Rattus norvegicus, UniProt A0A8I6A822); test: Photoaffinity labeling of rat colon membranes with [125I]-ICYP-diazirine; assay type: binding; settings: competitor 100 μM; 1.5 nM [125I]-ICYP-diazirine; 10 μM 5-HT, 10 μM phentolamine, 20 μM propranolol
# T2 construct: Membranes from colon smooth muscles were prepared as essentially described by Ek et al., 1986; from tissue
# T2 sequence (A0A8I6A822 27-587): as above
# Procedure: Incubations were carried out in the presence or absence of competitor at 37° C. for 45 min in the dark in a shaking water-bath incubator and terminated by addition of 10 ml of ice-cold Tris-saline followed by a rapid centrifugation (150,000×g for 10 min at 4° C.). The membranes were irradiated with a UV lamp for 5 min with cooling by circulating water. The labeled membranes were diluted with 10 ml of ice-cold Tris-saline, centrifuged (150,000×g for 30 min at 4° C.), and the pellet was resuspended in Tris-saline and kept at −80° C.
# SDS-PAGE was performed under reducing conditions essentially as described by Laemmli, 1970, using 12% polyacrylamide gels (40% T, 2.6% C). […] After electrophoresis, the gels were dried and autoradiographed on X-OMAT™ AR film (Eastman Kodak Co., NY, USA), as specified in example 1, chapter <<(preparative SDS-PAGE>>.
# guinea pig ileum = test: Guinea pig ileum relaxation of KCl-induced tonus; settings: compared with rat white adipocyte lipolysis
# [6] = target: rat SM-11044 binding protein (Ro-SMBP) of rat colon smooth muscle membranes (rat) (UniProt D3ZUD8); test: WGA-sepharose chromatography, elution with N-acetyl-D-glucosamine
# [7] = agonist (−)-isoproterenol, listed as Cyanopindolol
# [8] = agonist (−)-isoproterenol, listed as cyanopindolol
# [9] = agonist SM-11044, listed as Cyanopindolol
# [10] = agonist SM-11044, listed as cyanopindolol
# [11] = up to the concentration of 10 μM
# [12] = 1 nM [125I]-ICYP, 10 μM 5-HT, 10 μM phentolamine and 20 μM propranolol, read-out: Ki on [125I]-ICYP specific binding to rat colon membranes
molecule,measurement,setting,value
"CC(C)(C)NCC(O)COc1cccc2[nH]c(C#N)cc12 (racemic) [(±)-cyanopindolol, cyanopindolol]",pA2 against propranolol-resistant responses of isoproterenol in rat colon,[1],7.12
same,"Slope of Schild plot for cyanopindolol, rat white adipocytes",rat white adipocytes; [7],1.08
same,"pA2 for cyanopindolol, rat white adipocytes",rat white adipocytes; [7],7.44
same,"Slope of Schild plot for cyanopindolol, rat white adipocytes",rat white adipocytes; [8],1.08 ± 0.10
same,"pA2 for cyanopindolol, rat white adipocytes",rat white adipocytes; [8],7.44 ± 0.61
same,"Slope of Schild plot for cyanopindolol, rat white adipocytes",rat white adipocytes; [9],0.96
same,"pA2 for cyanopindolol, rat white adipocytes",rat white adipocytes; [9],7.32
same,"Slope of Schild plot for cyanopindolol, rat white adipocytes",rat white adipocytes; [10],0.96 ± 0.21
same,"pA2 for cyanopindolol, rat white adipocytes",rat white adipocytes; [10],7.32 ± 1.51
same,Stimulation of lipolysis by the compound itself,rat white adipocytes; [11],did not stimulate lipolysis
same,Ki,[2],0.11 µM
same,Pseudo-Hill coefficient,"[2]; 1 nM [125I]-ICYP, 10 μM 5-HT, 10 μM phentolamine and 20 μM propranolol",1.01 ± 0.14
same,"Slope of Schild plot for cyanopindolol, rat colon",[3]; [7],1.03
same,"pA2 for cyanopindolol, rat colon",[3]; [7],7.65
same,"Slope of Schild plot for cyanopindolol, rat colon",[3]; [8],1.03 ± 0.08
same,"pA2 for cyanopindolol, rat colon",[3]; [8],7.65 ± 0.48
same,"Slope of Schild plot for cyanopindolol, rat colon",[3]; [9],0.78
same,"pA2 for cyanopindolol, rat colon",[3]; [9],8.31
same,"Slope of Schild plot for cyanopindolol, rat colon",[3]; [10],0.78 and 0.78 ± 0.11
same,"pA2 for cyanopindolol, rat colon",[3]; [10],8.31 and 8.31 ± 0.88
same,Effect of the compound itself on the degree of tonus induced by KCl,[3]; [11],had no effect
"CC(C)NC[C@H](O)c1ccc(O)c(O)c1 (single isomer, unassigned) [(−)-isoproterenol, isoproterenol]","IA, rat white adipocyte lipolysis",rat white adipocytes,1.00 ± 0.037
same,EC50,rat white adipocytes,1380 nM
same,Ki,[2]; [12],> 1000 µM
same,Displacement of [125I]-ICYP specific binding,[2]; up to the concentration of 1 mM,not displaced
same,"IA, rat colon relaxation",[3],1.00 ± 0.063
same,EC50,[3],229 nM
same,Displacement of [125I]-ICYP specific binding to skeletal muscle membranes,[4],not displaced by isoproterenol up to concentrations of 10^−4 M
same,Inhibition of leukotriene B4 induced guinea pig eosinophil chemotaxis,guinea pig eosinophil,no such effect
CC(Cc1ccc(OCC(=O)O)cc1)NCC(O)c1cccc(Cl)c1 (centres unmarked) [BRL-37344],"IA, rat white adipocyte lipolysis",rat white adipocytes,0.72 ± 0.0333
same,EC50,rat white adipocytes,56.2 nM
same,Ki,[2]; [12],> 100 µM
same,Displacement of [125I]-ICYP specific binding,[2]; up to the concentration of 100 μM,did not displace
same,"IA, rat colon relaxation",[3],1.00 ± 0.126
same,EC50,[3],31.6 nM
same,Inhibition of leukotriene B4 induced guinea pig eosinophil chemotaxis,guinea pig eosinophil,no such effect
same,Displacement of the photoaffinity-labeled 34 kDa band,[5],not displaced
"O=C([C@@H](NCCCc1ccc(F)cc1)[C@H](O)c1ccc(O)c(O)c1)N1CCCC1 [SM-11044, (L)-threo-3-(3,4-dihydroxyphenyl)-N-[3-(4-fluorophenyl)propyl]serine pyrrolidine amide hydrobromide]","IA, rat white adipocyte lipolysis",rat white adipocytes,0.86 ± 0.054
same,EC50,rat white adipocytes,1100 nM
same,Pseudo-Hill coefficient,"[2]; 1 nM [125I]-ICYP, 10 μM 5-HT, 10 μM phentolamine and 20 μM propranolol, hydrobromide",1.00 ± 0.12
same,Ki,[2]; [12],1.8 ± 0.3 µM
same,"IA, rat colon relaxation",[3],1.48 ± 0.166
same,EC50,[3],51.3 nM
same,Relaxation of KCl-induced tonus in guinea pig ileum (in words),guinea pig ileum,more efficiently than rat white adipocyte lipolysis
same,Displacement of [125I]-ICYP specific binding to skeletal muscle membranes,[4],displaced the binding in a concentration-dependent manner
same,Inhibition of leukotriene B4 induced guinea pig eosinophil chemotaxis,guinea pig eosinophil,inhibiting
B1,percent of the radiolabeled material eluted by the specific sugar,[6],2.3%
